One may read the MIC as the lowest concentration that inhibits growth of the organism. The IC50 is the point on the concentration scale where inhibition reaches its midpoint. As usually defined, the EC50 is the concentration needed to bring the measured effect to its halfway point.

Data set [1] deals with Candida albicans ATCC 90028. Put plainly: In vitro antifungal susceptibility testing (MIC determination). In kind it is cell-based. Particulars: ATCC90028.
Data set [2] concerns Mycobacterium tuberculosis H37Ra. Nature of the data set: Antimycobacterial susceptibility assay (MIC determination). In kind it is cell-based. Particulars: 168 h, 7 days, 37 °C, alamarBlue. As for the experimental part: At log phase growth, a culture sample (10 mL) was centrifuged at 15,000 rpm/20 min using a bench-top centrifuge (MPW-65R, MPW Med Instruments, Poland). Following removal of the supernatant, the pellet was washed in fresh Middlebrook 7H9GC broth and re-suspended in fresh, ODAC-supplemented MB (10 mL). The turbidity was adjusted to match McFarland standard No. 1 (3 × 10^8 CFU) with MB broth. A further 1:20 dilution of the culture was then performed in MB broth. The antimicrobial susceptibility of M. tuberculosis was investigated in a 96-well plate format. In these experiments, sterile deionised water (300 µl) was added to all outer-perimeter wells of the plates to minimize evaporation of the medium in the test wells during incubation. Each evaluated compound (100 µL) was incubated with M. tuberculosis (100 µl). Dilutions of each compound were prepared in duplicate. For all synthesized compounds, final concentrations ranged from 1000 μg/mL to 8 μg/mL. All compounds were dissolved in DMSO, and subsequent dilutions were made in supplemented MB. […] Following incubation, 10% of alamarBlue (Difco, Lawrence, KS, USA) was mixed into each well, and readings at 570 nm and 600 nm were taken, initially for background subtraction and subsequently after 24 h reincubation. […] For non-interfering compounds, a blue colour in the well was interpreted as the absence of growth, and a pink colour was scored as growth.
For orientation: Alamar Blue is a resazurin reagent that responds to reducing activity.

Data set [3] concerns panel of nine different human cancer cell lines. Nature of the data set: Cytostatic activity, panel of nine human cancer cell lines. The format is cell-based. Particulars: all nine tested cell lines, read-out: IC50 (range over all tested cell lines). As for the experimental part: To gain insight into cytotoxicity of newly synthesized compounds 4a–f and 5a–f, their cytostatic activity was evaluated in vitro against a panel of nine different human cancer cell lines, representing various solid tumor types including pancreatic adenocarcinoma (Capan-1), chronic myeloid leukemia (Hap1), colorectal carcinoma (HCT-116), lung carcinoma (NCI-H460), acute lymphoblastic leukemia (DND-41), acute myeloid leukemia (HL-60), chronic myeloid leukemia (K-562), multiple myeloma (MM.1S) and non-Hodgkin lymphoma (Z-138).
Cytostatic activity was evaluated in vitro on nine different types of human tumor cell lines: Capan-1, Hap1, HCT-116, and NCI-H460, as well as hematological tumors such as DND-41, HL-60, K-562, MM.1S and Z-138 as described previously. All human tumor cell lines were acquired from the American Type Culture Collection (ATCC, Manassas, VA, USA), except for the DND-41 cell line which was purchased from the Deutsche Sammlung von Mikroorganismen und Zellkulturen (DSMZ Leibniz-Institut, Braunschweig, Germany) and the Hap1 cell line which was purchased from Horizon Discovery (Waterbeach, UK). […] The plates were incubated and monitored at 37 °C for 72 h in an IncuCyte (Essen BioScience Inc., Ann Arbor, MI, USA) for real-time imaging. […]

For data set [4], the system named is Coxsackie Virus B4. Nature of the data set: Antiviral activity in Vero cell cultures. The format is cell-based. Particulars: Enterovirus B, B4, Vero cells.
Data set [5] deals with Staphylococcus aureus ATCC 6538. Put plainly: Antimicrobial susceptibility assay in vitro (MIC determination). The format is cell-based. Particulars: ATCC6538.
The subject of data set [6] is Enterococcus faecalis ATCC 29212. The data set is described as above. The format is cell-based.
In data set [7] the test system is broad variety of viral infections. Put plainly: Antiviral evaluation, broad variety of viruses. In kind it is cell-based. Particulars: Vero cells; for EC50: reovirus-1, sindbis virus and Punta Toro virus, read-out: EC50 (range over viruses).
For data set [8], the system named is Vero cell cultures. Particulars: Vero cells, microscopically detectable alteration of cell morphology; unit not printed in head (EC50 columns µM).
Data set [9] concerns panel of bacteria, Mycobacterium strains and fungi. Nature of the data set: Antimicrobial screening, panel of bacteria, Mycobacterium strains and fungi. Particulars: S. aureus, S. pneumoniae, A. baumannii and C. albicans ATCC 90028. The format is cell-based.
Setting [10] is: MTS, read-out: EC50 Coxsackie Virus B4, MTS.
The mark [11] stands for this setting: Enterococcus faecalis, ATCC29212, 24 h.
[12] abbreviates: ATCC29212, Enterococcus faecalis ATCC 29212, broth dilution, 24 h, 37 °C, read-out: MIC.
Setting [13] is: visual CPE score, read-out: EC50 Coxsackie Virus B4, Visual CPE Score.

In brackets after ≈: the same amount, converted by molar mass. Like-named read-outs stand apart in the source and are kept apart here.

With `COc1cc(NC(C)CCCNC(=O)/C=C/C(=O)Nc2cccc(F)c2)c2ncccc2c1` (stereo not shown) [Compound 4a, (2E)-N-(3-Fluorophenyl)-N′-{4-[(6-methoxyquinolin-8-yl)amino]pentyl}but-2-enediamide], the MIC is > 100 mg/L in [1], 128 mg/L (≈ 284 µM) in data set [2], > 100 mg/L in data set [5] and 128 mg/L (≈ 284 µM) in data set [6] (setting [11]). The IC50 in [3] lay within 5.7 to 31.2 µM. For the same compound, in [4] (setting [10]), the EC50 was > 50 µM.

On to `COc1cc(NC(C)CCCNC(=O)/C=C/C(=O)Nc2ccc(F)cc2)c2ncccc2c1` (stereo not shown) [Compound 4b, (2E)-N-(4-Fluorophenyl)-N′-{4-[(6-methoxyquinolin-8-yl)amino]pentyl}but-2-enediamide], for which the MIC in data set [1] was > 100 mg/L; in data set [2], 32 mg/L (≈ 71 µM); in data set [5] it was 12.5 mg/L (≈ 27.7 µM); in data set [6] (setting [12]), 64 mg/L (≈ 142 µM). Also, the EC50 in [4] (setting [10]) is > 50 µM.

Take `COc1cc(NC(C)CCCNC(=O)/C=C/C(=O)Nc2cccc(Cl)c2)c2ncccc2c1` (stereo not shown) [Compound 4c, (2E)-N-(3-Chlorophenyl)-N′-{4-[(6-methoxyquinolin-8-yl)amino]pentyl}but-2-enediamide]: the MIC was > 100 mg/L in data set [1], 128 mg/L (≈ 274 µM) in data set [2], 12.5 mg/L (≈ 26.8 µM) in data set [5] and 256 mg/L (≈ 548 µM) in [6] (setting [12]). Also, the “selectivity index (SI), MCC and EC50 ratio” value in data set [7] is reported as 1.8–3.7. Besides, the EC50 was 3.1 to 5.5 µM in data set [7], > 50 µM in data set [4] (setting [10]) and > 50 µM in data set [4] (setting [13]). Besides, in [8], the “Cytotoxicity MCC (minimum cytotoxic concentration)” value was 10.

With `COc1cc(NC(C)CCCNC(=O)/C=C/C(=O)Nc2ccc(Cl)cc2)c2ncccc2c1` (stereo not shown) [Compound 4d, (2E)-N-(4-Chlorophenyl)-N′-{4-[(6-methoxyquinolin-8-yl)amino]pentyl}but-2-enediamide], the MIC stood at 12.5 mg/L (≈ 26.8 µM) in [1], 128 mg/L (≈ 274 µM) in data set [2], 6.1 mg/L (≈ 13.1 µM) in data set [5] and 64 mg/L (≈ 137 µM) in data set [6] (setting [12]). Besides, the “MIC values (range over strains)” value in [9] fell in the range of 6.1 to 12.5 mg/L. In data set [4] (setting [10]), the EC50 is > 50 µM.

On to `COc1cc(NC(C)CCCNC(=O)/C=C/C(=O)Nc2cccc(C(F)(F)F)c2)c2ncccc2c1` (stereo not shown) [Compound 4e, (2E)-N′-{4-[(6-Methoxyquinolin-8-yl)amino]pentyl}-N-[3-(trifluoromethyl)phenyl]but-2-enediamide], for which the MIC in [1] was > 100 mg/L; in data set [2], 128 mg/L (≈ 256 µM); in [5] it was 50 mg/L (≈ 99.9 µM); in [6] (setting [11]), 128 mg/L (≈ 256 µM). Besides, the “selectivity index (SI), MCC and EC50 ratio” value in data set [7] is 1.8–3.7. Moreover, the EC50 was 3.1 to 5.5 µM in data set [7], 3.1 µM in data set [4] (setting [10]) and 2.7 µM in data set [4] (setting [13]). Further, the “Cytotoxicity MCC (minimum cytotoxic concentration)” value in data set [8] is 10.

On to `COc1cc(NC(C)CCCNC(=O)/C=C/C(=O)Nc2ccc(C(F)(F)F)cc2)c2ncccc2c1` (stereo not shown) [Compound 4f, (2E)-N′-{4-[(6-Methoxyquinolin-8-yl)amino]pentyl}-N-[4-(trifluoromethyl)phenyl]but-2-enediamide], for which the MIC in data set [1] is > 100 mg/L; in data set [2], 64 mg/L (≈ 128 µM); in data set [5], 50 mg/L (≈ 99.9 µM); in data set [6] (setting [12]) it was 64 mg/L (≈ 128 µM). In addition, the EC50 in data set [4] (setting [10]) is > 50 µM.
